The values below come from article PMC4685510, “A Cell Biologist’s Field Guide to Aurora Kinase Inhibitors” (Frontiers in Oncology, 2015).

Test in all cases: biochemical
What all share (format): biochemical

Experiment [1] addresses 363 human kinases (including Aurora A/B/C) (Homo sapiens, UniProt O75914). The following applies: PAK3; for remaining activity at 0.1 µM: 100 nM; for remaining activity at 0.1 µM / remaining activity at 0.5 µM: read-out: % Enzyme Activity (relative to DMSO controls).
Source text: (§1) However, the Aurora A/B selectivity ratios derived from our in vitro and in vivo data can be compared to prioritize inhibitors.
Experiment [2] has as its target T1, 363 human kinases (including Aurora A/B/C) (Homo sapiens, UniProt Q8WXR4).
T1 sequence (Q8WXR4 1-1341): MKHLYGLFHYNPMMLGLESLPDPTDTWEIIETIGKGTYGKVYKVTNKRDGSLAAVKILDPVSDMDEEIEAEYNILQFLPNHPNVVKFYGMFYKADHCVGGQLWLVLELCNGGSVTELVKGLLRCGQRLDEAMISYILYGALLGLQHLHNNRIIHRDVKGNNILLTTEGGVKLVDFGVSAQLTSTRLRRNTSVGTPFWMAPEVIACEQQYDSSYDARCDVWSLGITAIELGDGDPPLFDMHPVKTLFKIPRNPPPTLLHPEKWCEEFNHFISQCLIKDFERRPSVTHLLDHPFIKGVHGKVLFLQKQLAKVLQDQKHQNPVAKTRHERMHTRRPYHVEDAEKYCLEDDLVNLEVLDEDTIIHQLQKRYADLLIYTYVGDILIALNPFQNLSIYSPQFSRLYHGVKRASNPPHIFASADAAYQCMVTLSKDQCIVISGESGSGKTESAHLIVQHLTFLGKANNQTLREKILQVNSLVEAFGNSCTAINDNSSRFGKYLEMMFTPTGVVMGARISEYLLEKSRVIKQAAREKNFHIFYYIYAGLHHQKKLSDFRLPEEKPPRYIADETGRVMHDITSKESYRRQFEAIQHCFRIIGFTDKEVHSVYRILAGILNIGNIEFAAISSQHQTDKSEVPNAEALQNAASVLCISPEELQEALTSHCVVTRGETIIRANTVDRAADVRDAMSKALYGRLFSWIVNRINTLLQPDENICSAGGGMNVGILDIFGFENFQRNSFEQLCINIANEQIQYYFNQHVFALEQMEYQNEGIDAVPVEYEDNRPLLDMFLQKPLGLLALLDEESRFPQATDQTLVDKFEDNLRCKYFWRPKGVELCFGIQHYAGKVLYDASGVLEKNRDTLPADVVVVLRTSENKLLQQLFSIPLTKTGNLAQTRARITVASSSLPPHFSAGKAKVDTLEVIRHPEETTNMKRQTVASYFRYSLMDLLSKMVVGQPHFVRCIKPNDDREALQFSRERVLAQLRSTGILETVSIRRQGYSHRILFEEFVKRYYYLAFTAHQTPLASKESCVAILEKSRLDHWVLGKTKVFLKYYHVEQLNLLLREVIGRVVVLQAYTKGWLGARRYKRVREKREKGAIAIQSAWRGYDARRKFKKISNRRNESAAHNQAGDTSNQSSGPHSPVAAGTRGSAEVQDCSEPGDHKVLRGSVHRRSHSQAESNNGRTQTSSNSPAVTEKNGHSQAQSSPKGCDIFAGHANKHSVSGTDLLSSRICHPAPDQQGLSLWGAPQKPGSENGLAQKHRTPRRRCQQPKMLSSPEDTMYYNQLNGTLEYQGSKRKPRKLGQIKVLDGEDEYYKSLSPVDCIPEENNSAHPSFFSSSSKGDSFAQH
The settings on record: MYO3b; for remaining activity at 0.1 µM: 100 nM; for remaining activity at 0.1 µM / remaining activity at 0.5 µM: read-out: % Enzyme Activity (relative to DMSO controls).
Source text: as §1

The target in experiment [3] is 363 human kinases (including Aurora A/B/C) (Homo sapiens, UniProt Q13153). The following applies: PAK1; for remaining activity at 0.1 µM: 100 nM; for remaining activity at 0.1 µM / remaining activity at 0.5 µM: read-out: % Enzyme Activity (relative to DMSO controls).
Chain of 363 human kinases (including Aurora A/B/C) (Homo sapiens, UniProt Q13153) (Q13153 whole entry): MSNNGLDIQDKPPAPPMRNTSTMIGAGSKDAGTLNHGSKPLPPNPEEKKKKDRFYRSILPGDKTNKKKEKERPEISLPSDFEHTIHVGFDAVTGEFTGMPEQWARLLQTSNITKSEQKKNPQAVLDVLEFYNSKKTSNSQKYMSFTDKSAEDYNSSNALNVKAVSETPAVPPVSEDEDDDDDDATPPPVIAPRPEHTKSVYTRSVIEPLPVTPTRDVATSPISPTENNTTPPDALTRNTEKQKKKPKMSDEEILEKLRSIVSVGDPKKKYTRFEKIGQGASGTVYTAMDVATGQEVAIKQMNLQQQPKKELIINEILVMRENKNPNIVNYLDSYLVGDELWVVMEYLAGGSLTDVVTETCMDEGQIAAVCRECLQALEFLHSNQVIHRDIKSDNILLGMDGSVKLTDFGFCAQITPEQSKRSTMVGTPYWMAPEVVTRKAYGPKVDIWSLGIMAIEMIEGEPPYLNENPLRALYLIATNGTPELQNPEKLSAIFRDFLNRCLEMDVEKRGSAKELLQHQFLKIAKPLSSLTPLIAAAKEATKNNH
Source text: as §1
Experiment [4] concerns the target T2, 363 human kinases (including Aurora A/B/C) (Homo sapiens, UniProt P30530).
T2 sequence (P30530 26-894): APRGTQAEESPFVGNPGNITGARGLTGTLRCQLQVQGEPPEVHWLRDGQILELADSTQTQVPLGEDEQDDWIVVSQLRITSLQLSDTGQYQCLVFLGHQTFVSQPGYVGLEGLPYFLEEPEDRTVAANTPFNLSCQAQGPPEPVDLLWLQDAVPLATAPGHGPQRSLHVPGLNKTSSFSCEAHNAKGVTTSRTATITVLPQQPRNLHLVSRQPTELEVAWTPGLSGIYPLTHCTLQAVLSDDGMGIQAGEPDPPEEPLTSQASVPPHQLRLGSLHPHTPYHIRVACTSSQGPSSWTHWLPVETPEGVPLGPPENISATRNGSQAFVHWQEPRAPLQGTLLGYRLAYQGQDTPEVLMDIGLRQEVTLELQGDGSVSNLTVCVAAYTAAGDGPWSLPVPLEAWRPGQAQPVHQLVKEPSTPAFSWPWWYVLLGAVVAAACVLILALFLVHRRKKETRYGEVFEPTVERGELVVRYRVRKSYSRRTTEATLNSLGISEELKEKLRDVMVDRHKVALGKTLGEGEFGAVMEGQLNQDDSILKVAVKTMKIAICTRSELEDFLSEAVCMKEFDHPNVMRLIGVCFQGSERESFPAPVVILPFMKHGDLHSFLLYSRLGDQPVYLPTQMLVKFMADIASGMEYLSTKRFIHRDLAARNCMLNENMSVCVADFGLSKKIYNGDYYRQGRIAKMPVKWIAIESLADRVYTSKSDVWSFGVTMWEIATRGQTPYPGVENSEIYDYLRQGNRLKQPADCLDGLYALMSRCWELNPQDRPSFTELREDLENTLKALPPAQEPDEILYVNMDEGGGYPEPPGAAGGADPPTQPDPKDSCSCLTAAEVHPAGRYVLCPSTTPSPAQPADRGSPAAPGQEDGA
The settings on record: AXL, [ATP] 100 µM; for remaining activity at 0.1 µM: 100 nM; for remaining activity at 0.1 µM / remaining activity at 0.5 µM: read-out: % Enzyme Activity (relative to DMSO controls).
Source text: as §1

The target of experiment [5] is T3, 363 human kinases (including Aurora A/B/C) (Homo sapiens, UniProt Q13043).
T3 sequence (Q13043 1-487): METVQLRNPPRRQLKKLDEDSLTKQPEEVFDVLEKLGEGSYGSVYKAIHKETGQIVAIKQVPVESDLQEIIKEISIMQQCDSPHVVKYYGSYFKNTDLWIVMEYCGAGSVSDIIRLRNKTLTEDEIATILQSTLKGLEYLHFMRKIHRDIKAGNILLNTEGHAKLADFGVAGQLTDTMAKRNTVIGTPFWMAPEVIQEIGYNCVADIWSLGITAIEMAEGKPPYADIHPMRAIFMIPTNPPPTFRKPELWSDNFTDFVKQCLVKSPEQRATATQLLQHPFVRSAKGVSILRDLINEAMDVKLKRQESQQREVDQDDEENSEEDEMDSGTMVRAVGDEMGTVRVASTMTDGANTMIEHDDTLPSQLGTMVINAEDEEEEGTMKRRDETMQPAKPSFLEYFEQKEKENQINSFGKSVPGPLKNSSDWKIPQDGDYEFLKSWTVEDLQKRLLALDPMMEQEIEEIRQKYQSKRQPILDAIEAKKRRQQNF
The following applies: MST1/STK4; for remaining activity at 0.1 µM: 100 nM; for remaining activity at 0.1 µM / remaining activity at 0.5 µM: read-out: % Enzyme Activity (relative to DMSO controls).
Source text: as §1

Molecules are shown by their SMILES.

Chain of 363 human kinases (including Aurora A/B/C) (Homo sapiens, UniProt O75914) (O75914 whole entry): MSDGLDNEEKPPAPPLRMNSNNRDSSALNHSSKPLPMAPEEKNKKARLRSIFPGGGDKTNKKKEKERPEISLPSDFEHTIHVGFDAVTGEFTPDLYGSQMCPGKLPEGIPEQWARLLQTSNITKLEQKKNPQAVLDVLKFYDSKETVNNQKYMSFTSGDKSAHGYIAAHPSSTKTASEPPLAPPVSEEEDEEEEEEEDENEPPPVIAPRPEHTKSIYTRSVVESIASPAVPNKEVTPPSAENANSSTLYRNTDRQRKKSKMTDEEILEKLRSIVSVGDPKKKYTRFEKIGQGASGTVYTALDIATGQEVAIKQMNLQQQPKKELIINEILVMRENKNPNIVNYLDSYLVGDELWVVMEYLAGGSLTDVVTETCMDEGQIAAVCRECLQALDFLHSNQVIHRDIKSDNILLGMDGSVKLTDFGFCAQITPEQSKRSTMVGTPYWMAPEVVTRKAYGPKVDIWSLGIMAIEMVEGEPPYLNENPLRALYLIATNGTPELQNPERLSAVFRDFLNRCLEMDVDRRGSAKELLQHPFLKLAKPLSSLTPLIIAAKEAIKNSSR

On to `CCn1cc(-c2ccnc3[nH]c(-c4cccc(CN(C)C)c4)cc23)c(-c2ccc(NC(=O)N(C)C)cc2)n1` [GSK1070916], for which the remaining activity at 0.1 µM in experiment [1] was 92.5%; in experiment [2] it was 102%; in experiment [3], 81.9%; in experiment [4] it was 103%; in experiment [5], 105%.

As for `O=C(O)[C@]1(Cc2cccc(Nc3nccs3)n2)CC[C@@H](Oc2cccc(Cl)c2F)CC1` [MK-5108], the remaining activity at 0.1 µM in experiment [1] turned out to be 92.3%; in experiment [2], 99.8%; in experiment [3], 93.7%; in experiment [4] it was 38.5%; in experiment [5] it was 81.8%. Moreover, the remaining activity at 0.5 µM amounted to 88.8% in experiment [1] (500 nM); 100% in experiment [2] (500 nM); 81.2% in experiment [3] (500 nM); 14% in experiment [4] (500 nM); 65.6% in experiment [5] (500 nM).

For the compound `O=C(c1cccc(Cl)c1F)N1CCN(Cc2cccc(Nc3nccs3)n2)CC1` [MK-8745], the “% Enzyme Activity (relative to DMSO controls)” value in experiment [1] (500 nM) is listed as 91.67%; in experiment [2] (500 nM), 106.69%; in experiment [3] (500 nM) it was 85.62%; in experiment [4] (500 nM), 9.19%; in experiment [5] (500 nM), 46.49%. Also, the remaining activity at 0.5 µM in experiment [1] (500 nM) was 94%; in experiment [2] (500 nM), 107%; in experiment [3] (500 nM), 87.5%; in experiment [4] (500 nM) it was 9.98%; in experiment [5] (500 nM), 46.6%.
